This is an account of results in US20080242667A1, “Pyrimidinyl-Pyrazole Inhibitors of Aurora Kinases” (SMITHKLINE BEECHAM CORPORATION, priority 2005, published 2008).

What is called melting point is the temperature of the solid-liquid transition.

For the molecule `O=C(Nc1ccc(-c2nn(CCO)cc2-c2ccnc(Nc3cccc(F)c3)n2)cc1)N1CCCC1` [Example 54, N-{4-[4-{2-[(3-fluorophenyl)amino]-4-pyrimidinyl}-1-(2-hydroxyethyl)-1H-pyrazol-3-yl]phenyl}-1-pyrrolidinecarboxamide], the melting point lay in the range of 185 to 186 °C.

`Cn1cc(-c2ccnc(Nc3cccc(CCN4CCOCC4)c3)n2)c(-c2ccc(NC(=O)NC3CC3)cc2)n1` [Example 55, N-cyclopropyl-N′-(4-{1-methyl-4-[2-({3-[2-(4-morpholinyl)ethyl]phenyl}amino)-4-pyrimidinyl]-1H-pyrazol-3-yl}phenyl)urea] returned a melting point of 143 to 145 °C.

Consider `Cn1ncc(-c2ccnc(Nc3cccc(CCN4CCOCC4)c3)n2)c1-c1ccc(NC(=O)N2CCCC2)cc1` [Example 56, N-(4-{1-methyl-4-[2-({3-[2-(4-morpholinyl)ethyl]phenyl}amino)-4-pyrimidinyl]-1H-pyrazol-5-yl}phenyl)-1-pyrrolidinecarboxamide], for which the melting point was in the range of 228 to 230 °C. In turn, `CCNC(=O)Nc1ccc(-c2nn(C)cc2-c2ccnc(Nc3cccc(CCN4CCOCC4)c3)n2)cc1` [Example 61, N-ethyl-N′-(4-{1-methyl-4-[2-({3-[2-(4-morpholinyl)ethyl]phenyl}amino)-4-pyrimidinyl]-1H-pyrazol-3-yl}phenyl)urea] returned a melting point of 139 to 141 °C. As for `CN(C)C(=O)Nc1ccc(-c2nn(C)cc2-c2ccnc(Nc3cccc(CCN4CCOCC4)c3)n2)cc1` [Example 65, N,N-dimethyl-N′-(4-{1-methyl-4-[2-({3-[2-(4-morpholinyl)ethyl]phenyl}amino)-4-pyrimidinyl]-1H-pyrazol-3-yl}phenyl)urea], the figure is 132 to 134 °C; as for `O=C(Nc1ccc(-c2nn(CCN3CCOCC3)cc2-c2ccnc(Nc3cccc(F)c3)n2)cc1)N1CCCC1` [Example 84, N-(4-{4-[2-{(3-fluorophenyl)amino]-4-pyrimidinyl}-1-[2-(4-morpholinyl)ethyl]-1H-pyrazol-3-yl}phenyl)-1-pyrrolidinecarboxamide], 167 to 168 °C.
